Ends that are not written are not given here.
Tested on: NHK (Null Hong Kong variant of alpha1-antitrypsin)
Test: CHX chase: NHK degradation in HT1080 AUP1 KO cells
Type: cell-based, human
Procedure: Fig 1 The G2BR of AUP1 is required for ERAD of NHK. (A) HT1080 or cells in which HRD1 was knocked out by CRISPR/Cas-9 (HRD1 KO) were transfected with plasmid encoding carboxyl-terminally HA-tagged NHK. Cells were treated with CHX for the indicated times to inhibit protein synthesis and NHK-HA degradation monitored by western blot. GFP and HSP60 serve as transfection efficiency and gel loading controls, respectively. (B) HT1080 or cells in which either AUP1 or gp78 was knocked out (AUP1 KO or gp78 KO) were transfected with NHK-HA and their degradation assessed. (C) AUP1 KO cells were transfected with NHK-HA and empty vector or plasmid encoding carboxyl-terminally FLAG-tagged AUP1 and NHK degradation assessed. (D) Indicated cells were transfected with plasmid encoding carboxyl-terminally MYC-tagged INSIG-1 and assessed for INSIG-1 degradation. (E) Schematic representation of AUP1 in the ER membrane and deletion mutants used in subsequent experiments. Amino acid residues are numbered spanning each domain. (F) AUP1 KO cells were transfected with NHK-HA and plasmids encoding the indicated FLAG-tagged AUP1 WT or deletion mutants and assessed for NHK degradation. (G) HEK293 (Parental) or HEK293 AUP1 KO cells were assessed for degradation of NHK-HA. (H) HEK293 AUP1 KO cells were assessed for NHK-HA degradation as in (F). Markers represent apparent molecular weight in kDa. The data underlying this figure can be found in S1 Data. aa, amino acid; AUP1, ancient ubiquitous protein 1; CHX, cycloheximide; ER, endoplasmic reticulum; ERAD, endoplasmic reticulum–associated degradation; G2BR, UBE2G2 Binding Region; KO, knockout; NHK, Null Hong Kong; WT, wild type.
Fig 6 Disruption of UBE2G2:G2BR^AUP1 interaction abrogates AUP1 function in cells. (A) GST or indicated GST-AUP1 fusions (aa 292 to 410, expression shown in Coomassie-stained gel) were immobilized on glutathione beads and binding to ^35S-UBE2G2 was assessed as in Fig 3A. Mutations include 2A (R382A/Q383A), 2E (R382E/Q383E), and 5E (R382E/Q383E/K390E/R398E/R400E). (B) AUP1 KO cells were transfected with NHK-HA and forms of full-length AUP1-FLAG with the indicated point mutations from (A) and NHK degradation assessed by CHX chase. (C) Binding assay performed as in (A) with AUP1 mutants predicted to disrupt hydrophobic interactions with UBE2G2. (D) Cellular assay performed as in (B) with AUP1-FLAG mutants that disrupt interactions with UBE2G2 in vitro in (C). The data underlying this figure can be found in S1 Data. aa, amino acid; AUP1, ancient ubiquitous protein 1; CHX, cycloheximide; G2BR, UBE2G2 Binding Region; KO, knockout; WT, wild type.
Fig 8 Recruitment of UBE2G2 to the ER membrane and activation by G2BR^AUP1 is required for ERAD. (A) HT1080 or AUP1 KO cells were transfected with NHK-HA and either empty vector or MYC-UBE2G2 and NHK turnover assessed by CHX chase. (B) AUP1 KO cells were transfected with NHK-HA and GFP fusions of either a scrambled G2BR sequence (SCR) or G2BR^AUP1 and NHK turnover and levels of endogenous UBE2G2 assessed. Luciferase and β-actin served as transfection efficiency and gel loading controls, respectively. (C) AUP1 KO cells were transfected with NHK-HA, MYC-UBE2G2, and either GFP-SCR or GFP-G2BR^AUP1 and NHK turnover assessed. (D) Membrane fractionation was performed on HT1080 or AUP1 KO cells transfected with either empty vector or AUP1-FLAG and localization of UBE2G2 assessed by western blotting. Localization of β-actin (cytosol) and Calnexin (ER membrane) were used as controls for cytosolic (C) and membrane (M) fractions, respectively. (E) Membrane fractionation of AUP1 KO cells transfected with either MYC-UBE2G2 or TM-UBE2G2. (F) HT1080 cells were transfected with TM-UBE2G2 and its localization assessed by confocal microscopy. Images shown are from an optical section after deconvolution. HA-tagged UBE2J2, an ER-localized E2, serves as an ER marker. […]

Molecule	NHK degradation, soluble G2BR alone (GFP fusion overexpressed without UBE2G2, HT1080 AUP1 KO)	NHK degradation, soluble G2BR with UBE2G2 (GFP-G2BR^AUP1 co-expressed with MYC-UBE2G2, HT1080 AUP1 KO)	NHK degradation, soluble G2BR with TM-UBE2G2 (GFP-G2BR^AUP1 co-expressed with TM-UBE2G2, HT1080 AUP1 KO)	NHK degradation, UBE2G2 overexpression (UBE2G2 form transfected without G2BR, HT1080 AUP1 KO)
GFP-G2BR^AUP1: GFP fusion of AUP1 aa 378 to 404 (SSWARQESLQERKQALYEYARRRFTER; also: GFP fusion; UniProt Q9Y679 378-404, looked up, fragment)	insufficient to reconstitute NHK degradation	did not restore NHK degradation	fully restored	
UBE2G2: ERAD ubiquitin-conjugating enzyme (E2); purified in vitro, N-terminally MYC-tagged in cells (protein) MAGTALKRLMAEYKQLTLNPPEGIVAGPMNEENFFEWEALIMGPEDTCFEFGVFPAILSFPLDYPLSPPKMRFTCEMFHPNIYPDGRVCISILHAPGDDPMGYESSAERWSPVQSVEKILLSVVSMLAEPNDESGANVDASKMWRDDREQFYKIAKQIVQKSLGL				did not restore NHK degradation

Source: PMC8699718, “A structurally conserved site in AUP1 binds the E2 enzyme UBE2G2 and is essential for ER-associated degradation” (PLoS Biology, 2021)
